US20230063462A1, “SULFONIMIDAMIDE COMPOUNDS AND COMPOSITIONS FOR TREATING CONDITIONS ASSOCIATED WITH NLRP ACTIVITY” (NOVARTIS AG, priority 2019, published 2023)

Tested on: THP-1 cells
Test: hTHP-1 assay: gramicidin-stimulated IL-1β detection in PMA-treated THP-1 cells
Type: cell-based, human
Settings: Table B2, 10% FBS

## NS(=O)(=NC(=O)Nc1c2c(nc(C3CC3)c1C1CC1)CCC2)c1nn(C2CC2)cc1F (single isomer, unassigned) [Example 883, (S) or (R)-1-cyclopropyl-N′-((2,3-dicyclopropyl-6,7-dihydro-5H-cyclopenta[b]pyridin-4-yl)carbamoyl)-4-fluoro-1H-pyrazole-3-sulfonimidamide]
Class symbol
  IC50: 1000 to 5000 nM
Numeric value
  IC50: 1250 nM

## NS(=O)(=NC(=O)Nc1c2c(nc3c1CCC31CC1)CCC2)c1ccn(C2CC2)n1 (single isomer, unassigned) [Example 884, (R) or (S)-1-cyclopropyl-N′-((1′,5′,6′,7′-tetrahydro-2′H-spiro[cyclopropane-1,3′-dicyclopenta[b,e]pyridin]-8′-yl)carbamoyl)-1H-pyrazole-3-sulfonimidamide]
Class symbol
  IC50: 40 to 200 nM
Numeric value
  IC50: 53.3 nM

## NS(=O)(=NC(=O)Nc1c2c(nc3c1CCC31CC1)CCC2)c1ccn(C2CC2)n1 (single isomer, unassigned) [Example 885, (S) or (R)-1-cyclopropyl-N′-((1′,5′,6′,7′-tetrahydro-2′H-spiro[cyclopropane-1,3′-dicyclopenta[b,e]pyridin]-8′-yl)carbamoyl)-1H-pyrazole-3-sulfonimidamide]
Class symbol
  IC50: 1000 to 5000 nM
Numeric value
  IC50: 2260 nM

## NS(=O)(=NC(=O)Nc1c2c(nc3c1CCC3)CCC2)c1ccn(C2CC2)n1 (single isomer, unassigned) [Example 886, (R) or (S)-1-cyclopropyl-N′-((1,2,3,5,6,7-hexahydrodicyclopenta [b,e]pyridin-8-yl)carbamoyl)-1H-pyrazole-3-sulfonimidamide]
Class symbol
  IC50: 200 to 1000 nM
Numeric value
  IC50: 270 nM

## NS(=O)(=NC(=O)Nc1c2c(nc3c1CCC3)CCC2)c1ccn(C2CC2)n1 (single isomer, unassigned) [Example 887, (S) or (R)-1-cyclopropyl-N′-((1,2,3,5,6,7-hexahydrodicyclopenta [b,e]pyridin-8-yl)carbamoyl)-1H-pyrazole-3-sulfonimidamide]
Class symbol
  IC50: 5000 to 30000 nM
Numeric value
  IC50: 5880 nM

## C[C@@H]1CCc2c1nc1c(c2NC(=O)N=S(N)(=O)c2ccn(C3CC3)n2)CCC1 (single isomer, unassigned) [Example 888, (R) or (S)-1-cyclopropyl-N′-(((R)-3-methyl-1,2,3,5,6,7-hexahydrodicyclopenta [b,e]pyridin-8-yl)carbamoyl)-1H-pyrazole-3-sulfonimidamide]
Class symbol
  IC50: 40 to 200 nM
Numeric value
  IC50: 49.4 nM

## C[C@@H]1CCc2c1nc1c(c2NC(=O)N=S(N)(=O)c2ccn(C3CC3)n2)CCC1 (single isomer, unassigned) [Example 889, (S) or (R)-1-cyclopropyl-N′-(((R)-3-methyl-1,2,3,5,6,7-hexahydrodicyclopenta [b,e]pyridin-8-yl)carbamoyl)-1H-pyrazole-3-sulfonimidamide]
Class symbol
  IC50: 1000 to 5000 nM
Numeric value
  IC50: 1670 nM

## Cc1c(C(F)(F)F)nc2c(c1NC(=O)N=S(N)(=O)c1ccn(C3CC3)n1)CCC2 (single isomer, unassigned) [Example 890, (R) or (S)-1-cyclopropyl-N′-((3-methyl-2-(trifluoromethyl)-6,7-dihydro-5H-cyclopenta [b]pyridin-4-yl)carbamoyl)-1H-pyrazole-3-sulfonimidamide]
Class symbol
  IC50: 40 to 200 nM
Numeric value
  IC50: 108 nM

## Cc1c(C(F)(F)F)nc2c(c1NC(=O)N=S(N)(=O)c1ccn(C3CC3)n1)CCC2 (single isomer, unassigned) [Example 891, (S) or (R)-1-cyclopropyl-N′-((3-methyl-2-(trifluoromethyl)-6,7-dihydro-5H-cyclopenta [b]pyridin-4-yl)carbamoyl)-1H-pyrazole-3-sulfonimidamide]
Class symbol
  IC50: 5000 to 30000 nM
Numeric value
  IC50: 6510 nM

## C[C@@H](O)Cn1cc(F)c(S(N)(=O)=NC(=O)Nc2c3c(nc4c2CCC42CC2)CCC3)n1 (single isomer, unassigned) [Example 892, (R) or (S)-4-fluoro-1-((R)-2-hydroxypropyl)-N′-((1′,5′,6′,7′-tetrahydro-2′H-spiro [cyclopropane-1,3′-dicyclopenta[b,e]pyridin]-8′-yl)carbamoyl)-1H-pyrazole-3-sulfonimidamide]
Class symbol
  IC50: 8 to 40 nM
Numeric value
  IC50: 12.7 nM

## C[C@@H](O)Cn1cc(F)c(S(N)(=O)=NC(=O)Nc2c3c(nc4c2CCC42CC2)CCC3)n1 (single isomer, unassigned) [Example 893, (S) or (R)-4-fluoro-1-((R)-2-hydroxypropyl)-N′-((1′,5′,6′,7′-tetrahydro-2′H-spiro [cyclopropane-1,3′-dicyclopenta[b,e]pyridin]-8′-yl)carbamoyl)-1H-pyrazole-3-sulfonimidamide]
Class symbol
  IC50: 200 to 1000 nM
Numeric value
  IC50: 679 nM

## C[C@H](O)Cn1cc(F)c(S(N)(=O)=NC(=O)Nc2c3c(nc4c2CCC42CC2)CCC3)n1 (single isomer, unassigned) [Example 896, (R) or (S)-4-fluoro-1-((S)-2-hydroxypropyl)-N′-((1′,5′,6′,7′-tetrahydro-2′H-spiro [cyclopropane-1,3′-dicyclopenta[b,e]pyridin]-8′-yl)carbamoyl)-1H-pyrazole-3-sulfonimidamide]
Class symbol
  IC50: 8 to 40 nM
Numeric value
  IC50: 13.6 nM

## C[C@H](O)Cn1cc(F)c(S(N)(=O)=NC(=O)Nc2c3c(nc4c2CCC42CC2)CCC3)n1 (single isomer, unassigned) [Example 897, (S) or (R)-4-fluoro-1-((S)-2-hydroxypropyl)-N′-((1′,5′,6′,7′-tetrahydro-2′H-spiro [cyclopropane-1,3′-dicyclopenta[b,e]pyridin]-8′-yl)carbamoyl)-1H-pyrazole-3-sulfonimidamide]
Class symbol
  IC50: 200 to 1000 nM
Numeric value
  IC50: 310 nM
